Reference: patent US7604990B2, “Methods of regulating differentiation in stem cells” (ES Cell International Pte Ltd., priority 2002, dated 2009)
Entries after “also recorded” stand apart in the source; their conditions may differ.

How the values were obtained:
Type in all cases: cell-based, human
[1] = tested on: hES cells; test: ELISA-based GCTM-2 quantification in hES cells (Example 2)
Protocol: (§1) hES-3 cells were cultured as previously described^1. The serum-free culture medium consisted of DMEM (without sodium pyruvate, glucose 4500 mg/l, Invitrogen, Mount Waverley, VIC, Australia) supplemented with insulin/transferrin/selenium 1%, β-mercaptoethanol 0.1 mM, NEAA 1%, glutamine 2 mM, Hepes 25 mM, penicillin 50 U/ml and streptomycin […] (all from Invitrogen). Media was changed every 2 days and cells were passaged every week S1P and dihydro-S1P were obtained from Biomol (Plymouth Meeting, Pa., USA). LPA was obtained from Sigma (Castle Hill, NSW, Australia). Extemporaneous dilutions of all lipids were made in water containing 0.1% fatty acid-free bovine serum albumin (BSA) (Sigma). S1P and dihydro-S1P were used at 10 mM. Human PDGF-AB, PDGF-AA, PDGF-BB were from Prepro Tech Inc. (Rocky Hill, N.J., USA) and were used at 20 ng/ml.
Cells were fixed in 100% ethanol and immunostained with GCTM-2 followed by alkaline phosphatase-coupled secondary antibodies (Dako). Alkaline phosphatase activity was detected by adding a solution of 4-nitrophenyl phosphate (Roche), and the concentration of the reaction product was determined by reading the optical density (OD) at 405 nm. In order to validate the technique as an accurate indicator of the proportion of GCTM-2 positive cells, standard curves were carried out with the embryonal carcinoma cell line GCT27C4, known to express GCTM-2^20.

[2] = tested on: ERKs (Erk1 and Erk2) in hES cells; test: ERK phosphorylation Western blot in hES cells (Example 1)
Protocol: RT-PCR for LPL receptors (A, B), PDGFR-[…] (alpha) and PDGFR-[…] (beta) (C), SPK-1 and SPK-2 (D), with (+) or without (−) RT. Immunostaining of hES cells with Hoechst 33342 (E, H), PDGFR-[…] (F) or PDGFR-[…] (I) and GCTM-2 (G, J) antibodies. S1P, LPA and PDGF stimulate ERKs phosphorylation in hES cells. (K) Western blots experiment were performed using protein lysate from hES cells. Cells were pre-treated or not with U0126 (30 μM, 1 hr) and incubated for 5 min in the absence (C, control) or presence of S1P (S, 10 μM), LPA (L, […]) or PDGF (P, 20 ng/ml). The phosphorylation of Erk1 and Erk2 (P-Erk1 and P-Erk2) was assessed by immunoblotting with a polyclonal anti-active MAP kinase as described in Materials and Methods. After a stripping procedure, the same blots were reprobed with a monoclonal anti-MAP kinase, allowed the detection of Erk1 and Erk2.
hES-3 cells plated without MEF for 24 hrs were depleted of serum for a further 18 hrs. Cells pre-treated or not with U0126 (Sigma, 30 μM, 1 hr), were incubated in the presence of the different agents for 5 min and were lysed by removal of the supernatants and addition of a reducing loading buffer containing 1 mM sodium orthovanadate (Sigma). Protein lysates (approx. 80 μg) were separated by SDS-polyacrylamide gel electrophoresis (10% polyacrylamide, w/v), transferred to nitrocellulose (Hybond-nitrocellulose, Amersham) and immunoblotting was carried out using rabbit polyclonal anti-active mitogen-activated protein (MAPK) antibodies raised against a dually phosphorylated MAPK peptide (Promega, Madison, Wis., USA). Peroxidase-coupled secondary antibody (Dako) was detected by exposure of autoradiographic films in the presence of a chemiluminescent detection reagent (ECL, Amersham). Stripping of antibodies was achieved and membranes were then reprobed with rabbit polyclonal anti-ERK1/2 antibodies (Promega), and then with peroxidase-coupled secondary antibodies (Dako). Membranes probed with either rabbit polyclonal anti-active p38 (Promega) or rabbit polyclonal anti-active JNK (Promega) antibodies were also performed, using the same procedure as described above.

[3] = tested on: ERKs (Erk1 and Erk2) in hES cells; test: ERK phosphorylation Western blot in hES cells (Example 5); settings: U0126 30 μM, 1 hr pre-treatment
Protocol: Western blots experiments were performed using protein lysate from hES cells. (A) Cells were pre-treated or not with U0126 (30 μM, 1 hr) and incubated for 5 min in the absence (C, control) or presence of S1P (10 μM). (B) Cells were incubated for different time periods in the absence or presence of S1P (10 μM). (C) Cells were incubated for 5 min with various concentrations of S1P. The phosphorylation of Erk1 and Erk2 (P-Erk1 and P-Erk2) was assessed by immunoblotting with a polyclonal anti-active MAP kinase as described in Materials and Methods. After a stripping procedure, the same blots reprobed with a monoclonal anti-MAP kinase, allowed the detection of Erk1 and Erk2.
For immunoblot analysis, cells were transferred into 24 well plates (8 colonies per well) without MEFs, and 24 hr later, were grown in the absence of serum for 18 hrs.
In some experiments, cells were pre-treated for 1 hr with U0126 (30 μM) or for 18 hrs with PTX (100 μg/ml).
hES3 cells were lysed following removal of the supernatants by addition of a reducing loading buffer (2% SDS, 62.5 mM Tris pH 6.8, 0.1 M DTT, 0.01% bromophenol blue) containing 1 mM sodium orthovanadate. Samples were boiled for 10 min and centrifuged at 13000 g for 15 min, and protein lysates (approx. 80 μg) were separated by SDS-polyacrylamide gel electrophoresis (10% polyacrylamide, w/v). Proteins were transferred to nitrocellulose (Hybond-ECL, Amersham) and immunoblotting was carried out with rabbit polyclonal anti-active mitogen-activated protein (MAPK) antibodies raised against a dually phosphorylated MAPK peptide (Promega, Madison, Wis., USA). Peroxidase-coupled secondary antibody (Dako) was detected by exposure of autoradiographic films in the presence of a chemiluminescent detection reagent (ECL, Amersham). Stripping of antibodies was achieved by incubating the membrane during 30 min at 50° C. in a buffer containing 100 mM mercaptoethanol, 2% SDS, 62.5 mM Tris-HCl pH 6.7. The membrane was then reprobing with rabbit polyclonal anti-ERK1/2 antibodies (Promega), and then with peroxidase-coupled secondary antibodies (Dako).

[4] = tested on: hES cells; test: Spontaneous differentiation of hES colonies on MEF in serum-free medium, morphology (Example 1); settings: 8 days serum-free on MEF; S1P 10 μM, PDGF 20 ng/ml, LPA up to 50 μM
Protocol: (A) hES cells grown with MEF, before the depletion of serum from the medium. (B, C, D, E) hES cells grown without serum after 8 days, in the absence (B) or in the presence of S1P (10 μM) (C), PDGF (20 ng/ml) (D), S1P (10 μM) plus PDGF (20 ng/ml) (E). (F) hES cells grown without serum, in the presence or in the absence (control) of S1P (10 μM), PDGF (20 ng/ml), S1P (10 μM) plus PDGF (20 ng/ml). In A-E, data are representative of at least 3 independent experiments. In F, data expressed as percentages of alkaline phosphatase activity in absence of serum for eight days (% of control), are the means±SEM of at least 2 independent experiments, each run in triplicate.
hES-3 cells were cultured as previously described^1. The serum-free culture medium consisted of DMEM (without sodium pyruvate, glucose 4500 mg/l, Invitrogen, Mount Waverley, VIC, Australia) supplemented with insulin/transferrin/selenium 1%, β-mercaptoethanol 0.1 mM, NEAA 1%, glutamine 2 mM, Hepes 25 mM, penicillin 50 U/ml and streptomycin […] (all from Invitrogen). Medium was changed every 2 days and cells were passaged every week. S1P and dihydro-S1P were obtained from Biomol (Plymouth Meeting, Pa., USA) and were dissolved in methanol. LPA was obtained from Sigma (Castle Hill, NSW, Australia) and was dissolved in ethanol. Extemporaneous dilutions of all lipids were made in water containing 0.1% fatty acid-free bovine serum albumin (BSA) (Sigma). Human PDGF-AB, PDGF-AA, PDGF-BB were from PreproTech Inc. (Rocky Hill, N.J., USA).

[5] = tested on: hES cells; test: Direct observation of hES colonies in serum-depleted medium (Example 4)
Protocol: (A) hES cells grown with feeder, before the depletion in serum. (B) hES cells grown without serum after 8 days (B, C) and 12 days (D, E), in absence (B, D) or presence of S1P (C, E, 10 μM).
For direct observation, hES-3 cells were coated into 12-well plates (3 colonies per well), with or without mouse embryonic feeders (MEFs). The day following the plating, cells were incubated with the different agents in serum free medium containing insulin, transferring and selenium. Media was changed the 2nd day and then every 2 days.

[6] = tested on: hES cells; test: Spontaneous differentiation of hES colonies on MEF in serum-free medium, morphology (Example 2); settings: 2 weeks serum-free on MEF; S1P 10 μM, PDGF-AB 20 ng/ml, LPA up to 50 μM
Protocol: as §1, with “S1P and dihydro-S1P were used at 10 mM.” left out

Compound: N#CC(=C(/N)Sc1ccccc1N)/C(C#N)=C(\N)Sc1ccccc1N [U0126]
- effect on PDGF and S1P action on GCTM2 expression ([1]; U0126 10 mM for 7 days): totally inhibited
- effect on S1P-, LPA- and PDGF-stimulated phosphorylation of ERKs ([2]; U0126 30 μM, 1 hr pre-treatment): totally inhibited
- effect on S1P-stimulated phosphorylation of ERKs [3]: totally inhibited

Compound: CCCCCCCCCCCCC/C=C/[C@@H](O)[C@H](CO)N(C)C [DMS, dimethylsphingosine]
- effect on PDGF and S1P action (GCTM2) ([1]; DMS 3 µM for 7 days): inhibited the effect of PDGF and S1P

Compound: lysophosphatidic acid [LPA]
- phosphorylation of ERKs ([2]; hES cells, 5 min, S1P 10 μM, LPA 50 M, PDGF 20 ng/ml): stimulated the phosphorylation of ERKs
- colony growth/morphology (spontaneous differentiation) [4]: did not have an obvious effect on growth of the colonies
- growth/differentiation of hES colonies on MEFs ([5]; S1P 10 μM 8 days, LPA up to 50 μM 12 days): did not seem to affect the growth of the colonies; also recorded: inactive
- effect on cell differentiation, hES cells grown without MEFs ([5]; without MEFs, n=3): lack of effect
- size or morphology of hES cell colonies (spontaneous differentiation) [6]: no obvious effect on size or morphology
